Reference: ChEMBL document CHEMBL3351435, “New pyrrole derivatives with potent tubulin polymerization inhibiting activity as anticancer agents including hedgehog-dependent cancer” (J Med Chem, 2014)
Active and inactive are the calls of the source. The rule behind the calls is not given here.

Experiments:
[1] = target: T1, CYP1A2 (Homo sapiens, UniProt P05177); assay: Inhibition of human CYP1A2 using furafylline as substrate at 1 uM; type: ADME; conditions: probe furafylline
T1 sequence (P05177 whole entry): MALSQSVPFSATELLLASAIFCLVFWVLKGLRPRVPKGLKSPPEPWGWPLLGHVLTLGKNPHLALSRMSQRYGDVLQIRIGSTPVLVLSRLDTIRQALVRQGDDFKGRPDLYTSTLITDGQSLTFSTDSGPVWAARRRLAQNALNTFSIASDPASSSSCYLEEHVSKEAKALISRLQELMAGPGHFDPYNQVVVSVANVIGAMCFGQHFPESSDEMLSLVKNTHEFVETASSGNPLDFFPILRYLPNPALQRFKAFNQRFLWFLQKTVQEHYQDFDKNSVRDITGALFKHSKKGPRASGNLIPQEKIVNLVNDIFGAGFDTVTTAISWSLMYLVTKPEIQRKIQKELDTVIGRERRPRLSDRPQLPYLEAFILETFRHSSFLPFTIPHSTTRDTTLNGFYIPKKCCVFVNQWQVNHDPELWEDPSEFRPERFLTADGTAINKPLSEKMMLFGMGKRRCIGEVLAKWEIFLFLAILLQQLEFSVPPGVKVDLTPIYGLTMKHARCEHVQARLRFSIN

[2] = Elimination half life in CD-1 mouse at 5 mg/kg, iv; type: ADME, organism-based; parameters: dose 5 mg/kg, route intravenous; conditions: in vivo, read-out: beta t1/2
[3] = test system: RD; assay: Cell cycle arrest in human RD cells assessed as accumulation at G2/M phase at 500 nM after 24 hrs by propidium iodide staining-based flow cytometry; type: functional
[4] = test system: HeLa; assay: Cell cycle arrest in human HeLa cells assessed as mitotic rounded-up phenotype at 100 nM by light microscopy; type: functional, cell-based
[5] = Mean residence time in CD-1 mouse at 15 mg/kg, po; type: ADME, organism-based; parameters: dose 15 mg/kg, route oral; conditions: in vivo
[6] = Cytotoxicity against human MESSA/DX5 cells assessed as growth inhibition after 72 hrs by CellTitre-Glo assay; type: functional, cell-based; conditions: MES-SA/Dx5, 72 h
[7] = test system: Mus musculus; assay: Tlast in CD-1 mouse at 15 mg/kg, po; type: ADME, organism-based; parameters: dose 15 mg/kg, route oral; conditions: in vivo
[8] = test system: HepG2; assay: Cell cycle arrest in human HepG2 cells assessed as rounded cells at 500 nM after 24 hrs by propidium iodide staining-based flow cytometry; type: functional

## COc1cc(C(=O)c2ccn(-c3cccc(N)c3)c2)cc(OC)c1OC
[1]
  inhibition at 1 µM: 66.8%
[2]
  half-life: 1.23 h
[3]
  Activity: Active
[4]
  Activity: Active
[5]
  MRT: 2.42 h
[6]
  IC50: 4.6 nM
[7]
  Tlast: 480 min
[8]
  Activity: Active
